Test results taken from US7932261B2, “Macrocycle derivatives useful as inhibitors of β-secretase (BACE)” (Janssen Pharmaceutica NV, priority 2006, dated 2011).
Read-outs that look alike come from different tables or passages of the source. One block for each compound: values may come before it.

Legend:
Assay type in all cases: biochemical
[1] = molecular target: T1, β-secretase (BACE) (Homo sapiens, UniProt P56817); experiment: in vitro BACE FS1 % Inhibition Assay (Example 13); details: FS1 substrate, pH 5; for inhibition at 0.3 µM: read-out: % Inhibition (Example 13) @ 0.3 μM; for inhibition at 0.3 µM / % Inhibition (Example 13) @ 0.3 μM: 0.3 μM compound; for inhibition at 1 µM: read-out: % Inhibition (Example 13) @ 1 μM; for inhibition at 1 µM / % Inhibition (Example 13) @ 1 μM: 1 μM compound; for inhibition at 3 µM: read-out: % Inhibition (Example 13) @ 3 μM; for inhibition at 3 µM / % Inhibition (Example 13) @ 3 μM: 3 μM compound
T1 construct: purchased Panvera
T1 sequence (P56817 46-501): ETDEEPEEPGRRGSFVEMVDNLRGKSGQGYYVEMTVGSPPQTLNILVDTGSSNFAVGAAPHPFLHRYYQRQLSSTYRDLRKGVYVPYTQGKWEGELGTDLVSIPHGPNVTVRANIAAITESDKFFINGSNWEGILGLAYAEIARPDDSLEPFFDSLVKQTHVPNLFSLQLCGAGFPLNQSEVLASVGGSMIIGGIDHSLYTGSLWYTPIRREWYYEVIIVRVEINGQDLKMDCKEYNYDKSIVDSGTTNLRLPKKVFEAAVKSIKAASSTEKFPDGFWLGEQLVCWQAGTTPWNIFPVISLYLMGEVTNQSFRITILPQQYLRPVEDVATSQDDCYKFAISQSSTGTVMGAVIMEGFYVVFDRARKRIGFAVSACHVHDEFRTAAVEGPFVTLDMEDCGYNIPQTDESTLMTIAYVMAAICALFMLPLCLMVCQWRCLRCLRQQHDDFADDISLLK
Description: (§1) The following assay buffers were prepared and used in this assay: (1) enzyme assay buffer (0.05 M sodium acetate, pH5, 0.1% PEG8000 (w/v)), (2) substrate assay buffer (0.05 M sodium acetate, pH5), and (3) compound vehicle (30% DMSO in 50 mM HEPES, pH 7.4).
(§2) The FS1-substrate stock solution was prepared in DMSO as a 10 mg/mL solution. The FS1-substrate working solution was prepared by diluting the 10 mg/mL stock solution with substrate assay buffer to a final concentration of 300 μg/mL. The α-secretase (BACE) working solution was prepared by diluting a 0.83 mg/mL BACE stock solution with enzyme assay buffer to a final concentration of 4 μg/mL.
Test compounds were dissolved in DMSO to 10 mM.
(§3) The screening procedure for this assay was as follows: 15 μL of BACE working solution was pipetted into each well of a 96-well plate. To each well was then pipetted 2 μL of test compound at the selected concentration. Test compound and BACE were then mixed with a pipettor and incubated for 20 min at room temperature. To each well was then added 10 µL of the FS1 substrate working solution. The plates were then incubated for 1 hour at room temperature.
The procedure for the blank (negative control) was as follows. 15 μL of assay buffer was pipetted into each well to be used as a blank control. To each well was then added 2 μL of vehicle and 10 μL of FS1-substrate working solution. The plates were then incubated for 1 hour at room temperature.
(§4) The procedure for the positive control was as follows: 15 μL of BACE working solution was pipetted into each well to be used as a positive control. To each well was then pipetted 2 μL of vehicle. Vehicle and BACE were then mixed with a pipettor and incubated for 20 min at room temperature. To each well was then added 10 μL of the FS1 substrate working solution. The plates were then incubated for 1 hour at room temperature.
For test compounds, % inhibition was determined at each concentration as follows: […]

[2] = molecular target: T1, β-secretase (BACE); experiment: in vitro BACE Assay, Ki (Example 14)
Description: as §1
as §2, with “β-secretase” for “α-secretase”
Test compounds were dissolved in DMSO at 10 mM.
as §3, with “The” for “The screening”, “μL” for “µL”, “solution.” for “solution. The plates were then incubated for 1 hour at room temperature.”
as §4, with “solution.” for “solution. The plates were then incubated for 1 hour at room temperature.”
For test compounds, Ki inhibition was determined as follows: For each compound concentration and positive control, rate of cleavage of substrate (Vi, where i=compound concentration in μM) was determined as Δ Fluorescence/Δ time (min). Cleavage rates (Vi) were plotted as a function of inhibitor concentration in μM [I]. The Ki was then determined by fitting the following equation to the graph of [I] vs. Vi Y=aVmax/(50+24*(1+X/Ki)),

[3] = molecular target: human BACE-1 (Homo sapiens, UniProt P56817); experiment: in vitro BACE Assay run by CEREP (Example 15)
Chain of human BACE-1 (P56817 46-501): as above
Description: More specifically the assay, run at 50 μL in a 96 well plate, evaluated the effect of test compound on the activity of the human BACE-1 quantified by measuring the formation of Mca-S-E-V—N-L-NH2 from Mca-S-E-V—N-L-D-A-E-F—R—K(Dnp)-R—R—NH2, using a recombinant enzyme.
The test compound, reference compound or water (control) was added to a buffer containing 0.09 M sodium acetate (pH 4.5) and 0.25 μg BACE-1. Compound interference with the fluorimetric detection method due to autofluorescence was then checked by measurements at the wavelengths defined to evaluate the enzyme activity. […] For control basal measurement, the substrate was omitted from the reaction mixture. […] The standard inhibitory reference compound was OM99-2, which was tested in each experiment at several concentrations to obtain an inhibition curve from which its IC50 value was calculated.

[4] = read-out: (Example 14) Ki, FS1 substrate 50 μM, Km 24 μM, pH 5
[5] = 0.3 μM compound, recombinant enzyme, pH 4.5, 60 min at 37° C.
[6] = recombinant enzyme, pH 4.5, 60 min at 37° C., read-out: IC50

- inhibition at 0.3 µM [3, 5]: 100%
- IC50 [3, 6]: 70 nM
Compound: NC1=Nc2cnc3cc2CN1[C@H](C1CCCCC1)CCC(=O)N(C1CCCC1)CCc1cccc(c1)O3 [Compound 37]

- IC50 [3]: 55 nM
- inhibition at 0.3 µM [3, 5]: 99%
Compound: NC1=Nc2cnc3cc2CN1[C@H](C1CCCCC1)CCC(=O)N(C1CCCCC1)CCc1cccc(c1)O3 [Compound 32]

- % Inhibition 0.3 μM [3, 5]: 15%
Compound: NC1=Nc2cnc3cc2CN1C(C1CCCCC1)CCC(=O)N(C1CCC(C(=O)O)CC1)CCc1cccc(c1)O3 (stereo not drawn) [Compound 33]

- inhibition at 0.3 µM [3, 5]: 86%
- IC50 [3, 6]: 210 nM
Compound: NC1=Nc2cnc3cc2CN1[C@H](C1CCCCC1)CCC(=O)N([C@H]1CC[C@@H](O)CC1)CCc1cccc(c1)O3 [Compound 34]

- inhibition at 1 µM ([3]; 1 μM compound, recombinant enzyme, pH 4.5, 60 min at 37° C.): 13%
Compound: Nc1nc2ccc3cc2cc1C(C1CCCCC1)CCCC(=O)N(C1CCCCC1)CCc1cccc(c1)O3 (stereo not drawn) [Compound 40]

- inhibition at 0.3 µM [3, 5]: 97%
- IC50 [3, 6]: 67 nM
Compound: NC1=Nc2cnc3cc2CN1[C@H](C1CCCCC1)CCC(=O)N(CC1CC1)CCc1cccc(c1)O3 [Compound 38]

- inhibition at 0.3 µM [3, 5]: 93%
- IC50 [3, 6]: 83 nM
Compound: NC1=Nc2ccc3cc2CN1[C@H](C1CCCCC1)CCC(=O)N([C@H]1CC[C@@H](O)CC1)CCc1cccc(c1)O3 [Compound 35]

Continued, compound first:

Compound: COc1cc2c3cc1Oc1cccc(c1)CCN(C1CCCCC1)C(=O)CC[C@@H](C1CCCCC1)N(C3)C(N)=N2 [Compound 18]
- inhibition at 0.3 µM [1]: 95%
- inhibition at 1 µM [1]: 107%
- inhibition at 3 µM [1]: 115%

Compound: NC1=Nc2ccc3cc2CN1[C@H](C1CCOCC1)CCC(=O)NCCc1cccc(c1)O3 [Compound 21]
- Ki [2, 4]: 100 nM
- % Inhibition (Example 13) @ 0.3 μM [1]: 54%
- % Inhibition (Example 13) @ 1 μM [1]: 88%
- % Inhibition (Example 13) @ 3 μM [1]: 110%

Compound: NC1=Nc2ccc3cc2CN1CCN(C1CCCCC1)C(=O)CCc1cccc(c1)O3 [Compound 15]
- % Inhibition (Example 13) @ 0.3 μM [1]: −36%
- % Inhibition (Example 13) @ 1 μM [1]: −31%
- % Inhibition (Example 13) @ 3 μM [1]: 10%

Compound: CC(C)[C@H]1CC(=O)N(C2CCCCC2)CCCc2cccc(c2)Oc2ccc3c(c2)CN1C(N)=N3 [Compound 5]
- % Inhibition (Example 13) @ 0.3 μM [1]: 3%
- % Inhibition (Example 13) @ 1 μM [1]: −6%
- % Inhibition (Example 13) @ 3 μM [1]: 43%

Compound: CC(C)[C@@H]1CCC(=O)N(C2CCCCC2)CCOc2cccc(c2)Oc2ccc3c(c2)CN1C(N)=N3 [Compound 27]
- Ki [2]: 11 nM
- inhibition at 0.3 µM [1]: 106%
- inhibition at 1 µM [1]: 117%
- inhibition at 3 µM [1]: 117%

Compound: CC(C)[C@@H]1CCC(=O)N(C2CCOCC2)CCc2cccc(c2)Oc2ccc3c(c2)CN1C(N)=N3 [Compound 20]
- Ki [2, 4]: 22 nM

Compound: NC1=Nc2ccc3cc2CN1CCCNC(=O)CCc1cccc(c1)O3 [Compound 9]
- % Inhibition (Example 13) @ 0.3 μM ([1]; 0.3 µM): −26%
- % Inhibition (Example 13) @ 1 μM ([1]; 1 µM): −21%
- % Inhibition (Example 13) @ 3 μM ([1]; 3 µM): 1%

Compound: NC1=Nc2ccc3cc2CN1[C@H](C1CCCCC1)CCC(=O)N([C@H]1CC[C@@H](C(=O)O)CC1)CCc1cccc(c1)O3 [Compound 29]
- inhibition at 0.3 µM [1]: 120%
- inhibition at 1 µM [1]: 116%
- inhibition at 3 µM [1]: 125%

Compound: CCOC(=O)C1CCC(N2CCc3cccc(c3)Oc3ccc4c(c3)CN(C(N)=N4)[C@H](C(C)C)CCC2=O)CC1 (stereo partly drawn) [Compound 28]
- % Inhibition (Example 13) @ 0.3 μM [1]: 4%
- % Inhibition (Example 13) @ 1 μM [1]: 59%
- % Inhibition (Example 13) @ 3 μM [1]: 110%
